# Source: patent US9771377B2, “Synthesis of FR901464 and analogs with antitumor activity” (University of Pittsburgh—Of the Commonwealth System of …, priority 2012, dated 2017)
# pIC50: −log10 of the molar value. Where two headings read alike, the source gives them in different places.
# Experiments:
# cancer cell = assay: Cancer cell antiproliferative activity (background statement); type: cell-based
# Description: This pharmacological profile for FR901464 has drawn considerable interest, focusing on its potential as an anticancer agent.
# HEK-293-II = assay: Growth inhibition assay (MTS), HEK-293-II; type: cell-based
# Method: (§1) Meayamycin, 4-TEGylated meayamycin, and 4-TEGylated FR901464 (right fragment) compounds were produced using the above protocols. The compounds were dissolved in dimethyl sulfoxide (DMSO) as 10 mM stocks and stored at −20° C. Prior to assays being performed, aliquots were thawed at room temperature and dilutions were prepared in RPMI 1640 medium containing 2% DMSO at 2×the desired concentration prior to addition to the cells.
# (§2) The cells were grown at 37° C. in an atmosphere containing 5% carbon dioxide in corning cell culture flasks (25 cm^2) in RPMI 1640 cell culture medium containing 10% fetal bovine serum, 1% Penicillin/Streptomycin, and 1% L-Glutamine.
# (§3) Cells were plated in 96 well plates at an initial density of 2,000 cells per well in 100 μL of medium and were incubated for 24 hours prior to compound addition. […] The compound was added to the cells at 2× the desired concentration in 100 μL cell culture medium. The cells were then incubated for an additional 3 to 5 days. Cell proliferation was measured using a commercial MTS solution (20 μL per well). The absorbance (at 490 nm and 630 nm) was measured by a Spectromax M2 plate reader (Molecular Devices). Each concentration treatment was done in quadruplets and the final numbers were averaged.
# A549 = assay: Growth inhibition assay (MTS), A549; type: cell-based; conditions: 3 to 5 days
# Method: as §1, §2, §3
# JHU 012 = assay: Growth inhibition assay (MTS), JHU 012; type: cell-based; conditions: 3 to 5 days
# Method: as §1, §2, §3
# PCI 13 = assay: Growth inhibition assay (MTS), PCI 13; type: cell-based; conditions: 3 to 5 days
# Method: as §1, §2, §3
# MDA-MB-231 = assay: Growth inhibition assay (MTS), MDA-MB-231; type: cell-based; conditions: 3 to 5 days
# Method: as §1, §2, §3
# HCT116 = assay: Growth inhibition assay (MTS), HCT116; type: cell-based
# Method: as §1, §2, §3
# MCF-7 = assay: Growth inhibition assay (MTS), MCF-7; type: cell-based
# Method: as §1, §2
# Cells were plated in 96 well plates at an initial density of 2,000 cells per well in 100 μL of medium and were incubated for 24 hours prior to compound addition. Serial two-fold dilutions were used in this experiment from 100 nM to 0.000191 nM. The compound was added to the cells at 2× the desired concentration in 100 μL cell culture medium. The cells were then incubated for an additional 3 to 5 days. Cell proliferation was measured using a commercial MTS solution (20 μL per well). The absorbance (at 490 nm and 630 nm) was measured by a Spectromax M2 plate reader (Molecular Devices). Each concentration treatment was done in quadruplets and the final numbers were averaged.
# [1] = test system: pre-mRNA splicing in HEK-293-II cells; assay: HEK-293-II cell-based splicing inhibition assay (luciferase, RT-PCR)
# Method: Splicing inhibition by PEGylated meayamycin was evaluated using the published HEK-293-II cell-based assay. In short, luciferase expression increases when pre-mRNA splicing is inhibited. Yang Gao et al., published online at Chem Bio Chem. Nov. 22, 2012 (DOI: 10.1002/cbic.201200558). […] (FIG. 1). Pre-mRNA splicing inhibition by 4-TEGylated meayamycin was examined in HEK-293-II cells over 72 h. The splicing inhibition, as manifested by the luciferase activity, in the 4-TEGylated meayamycin-treated cells persisted for 48 h, which was different from that in the meayamycin-treated cells. (FIG. 2).
# tumor = conditions: mouse model; cited from earlier work
# MCF-7 cells = MCF-7 cells at 20 nM; cited from earlier work
# [2] = HEK-293-II, 3 to 5 days, MTS, read-out: GI50
smiles,measurement,setting,value
CC(/C=C/[C@H]1OC(C)(C)C[C@@]2(CO2)[C@@H]1CCCOCCOCCOCCN=[N+]=[N-])=C\C[C@@H]1O[C@H](C)C(NC(=O)/C=C\[C@H](C)OC(=O)N2CCOCC2)C[C@@H]1C (stereo partly shown) [4-TEGylated-FR901464 analog],cancer cell antiproliferative activity,cancer cell,high cancer cell antiproliferative activity
"CC(=O)O[C@@H](C)/C=C\C(=O)N[C@@H]1C[C@H](C)[C@H](C/C=C(C)/C=C/[C@H]2OC(C)(C)C[C@@]3(CO3)[C@@H]2O)O[C@@H]1C [meayamycin, reference compound]",GI50,HEK-293-II; [2],7.8 nM
same,GI50,A549,0.26 nM
same,GI50,JHU 012,4.7 nM
same,GI50,PCI 13,4.8 nM
same,GI50,MDA-MB-231,0.07 nM
same,GI50,"HCT116; HCT116, 3 to 5 days, MTS, read-out: GI50",0.038 nM
same,GI50,MCF-7; 3 to 5 days,0.8 nM
"C=C[C@H]1OC(C)(C)C[C@@]2(CO2)[C@@H]1O [right fragment without PEGylation, (3R,4R,5R)-7,7-dimethyl-5-vinyl-1,6-dioxaspiro[2.5]octan-4-ol]",antiproliferation activity,HCT116; even at 200 μM,no antiproliferation activity
C=C[C@H]1OC(C)(C)C[C@@]2(CO2)[C@@H]1OCCOCCOCCOCCN=[N+]=[N-] [4-TEGylated FR901464 (right fragment)],GI50,HEK-293-II; [2],8900 nM
same,GI50,A549; Homo sapiens,2200 nM
same,GI50,JHU 012,2000 nM
same,cancer cell antiproliferative activity,cancer cell,high cancer cell antiproliferative activity
same,GI50,PCI 13,3700 nM
same,GI50,MDA-MB-231; Homo sapiens,1500 nM
same,GI50,"HCT116; Homo sapiens, HCT-116, HCT116, 3 to 5 days, MTS, read-out: GI50",2200 nM
same,pIC50,"HCT116; Homo sapiens, HCT-116, read-out: GI150, inhibition of HCT-116 proliferation",5.82
CC(=O)O[C@@H](C)/C=C\C(=O)N[C@@H]1C[C@H](C)[C@H](C/C=C(C)/C=C/[C@H]2OC(C)(C)C[C@@]3(CO3)[C@@H]2OCCOCCOCCOCCN=[N+]=[N-])O[C@@H]1C [4-TEGylated meayamycin],time the splicing inhibition (luciferase activity) persisted,"[1]; HEK-293-II cells examined over 72 h, FIG. 2",48 h
same,RT-PCR analysis of total RNA: pre-mRNA splicing,"[1]; HEK-293-II cells, FIG. 1",inhibited pre-mRNA splicing
same,pIC50,"[1]; HEK-293-II, luciferase, 16-h treatment, average of three independent experiments, read-out: IC150, inhibitory activity towards pre-mRNA splicing",8.62
same,GI50,HEK-293-II,46 nM
same,GI50,"HCT116; Homo sapiens, HCT-116",0.1 nM
same,GI50,"MCF-7; Homo sapiens, MCF7, 3 to 5 days",2.4 nM
CC(=O)O[C@@H](C)/C=C\C(=O)N[C@@H]1C[C@H](C)[C@H](C/C=C(C)/C=C/[C@H]2O[C@](C)(O)C[C@@]3(CO3)[C@@H]2O)O[C@@H]1C [FR901464],concentrations at which antitumor activity is exhibited,tumor,0.056 to 0.18 mg/kg
same,"mRNA levels of p53, p21, c-myc, and E2F-1",MCF-7 cells,lowers the mRNA levels
